Source: patent US20230045421A1 (priority 2018, published 2023)

The compounds below were run on HBV rcDNA (assay: HepDE19 assay with bDNA quantitation of HBV rcDNA). Details: HepDE19 assay, inhibition of formation of rcDNA; read-out: DE-19bDNA EC50.
Assay type: cell-based, hepatitis B virus
Method in brief: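 HepDE19 cells (HepG2-derived, Tet-regulated HBV replication) were deprived of tetracycline and then exposed to compounds for 7 days at 37 °C in 0.5% DMSO, 8-point titration from 25 μM. rcDNA was quantified by bDNA and EC50/EC90 came from 4-parameter fits. CC50 was measured by CellTiter-Glo ATP content on replicate plates after 4 days.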

SMILES | EC50
COc1ncc(C(CCO)NC(=O)Nc2ccc(F)c(Cl)c2)c2ccccc12 (single isomer, unassigned) [Compound 77, 1-(3-Chloro-4-fluorophenyl)-3-(3-hydroxy-1-(1-methoxyisoquinolin-4-yl)propyl)urea] | 7.4 µM
CC(NC(=O)Nc1ccc(F)c(Cl)c1)c1c[nH]c(=O)c2ccccc12 (single isomer, unassigned) [Compound 11, 1-(3-Chloro-4-fluorophenyl)-3-(1-(1-oxo-1,2-dihydroisoquinolin-4-yl)ethyl)urea] | 4.7 µM
CC(c1c[nH]c(=O)c2ccccc12)N(CC1CCOCC1)C(=O)Nc1ccc(F)c(Cl)c1 (single isomer, unassigned) [Compound 142, 3-(3-Chloro-4-fluorophenyl)-1-(1-(1-oxo-1,2-dihydroisoquinolin-4-yl)ethyl)-1-((tetrahydro-2H-pyran-4-yl)methyl)urea] | 0.04 µM
CC(c1c[nH]c(=O)c2ccccc12)N(CC1CCN(S(C)(=O)=O)CC1)C(=O)Nc1ccc(F)c(Cl)c1 (single isomer, unassigned) [Compound 204, 3-(3-Chloro-4-fluorophenyl)-1-((1-(methylsulfonyl)piperidin-4-yl)methyl)-1-(1-(1-oxo-1,2-dihydroisoquinolin-4-yl)ethyl)urea] | 0.06 µM
CC(c1c[nH]c(=O)c2ccc(Cl)cc12)N(C)C(=O)Nc1ccc(F)c(Cl)c1 (single isomer, unassigned) [Compound 172, 1-(1-(6-Chloro-1-oxo-1,2-dihydroisoquinolin-4-yl)ethyl)-3-(3-chloro-4-fluorophenyl)-1-methylurea] | 0.12 µM
COCCCN(C(=O)Nc1ccc(F)c(Cl)c1)C(C)c1cnc(OC)c2ccccc12 (single isomer, unassigned) [Compound 81, 3-(3-Chloro-4-fluorophenyl)-1-(1-(1-methoxyisoquinolin-4-yl)ethyl)-1-(3-methoxypropyl)urea] | 8.6 µM
CC(c1c[nH]c(=O)c2ccccc12)N(CC1CCOC1)C(=O)Nc1ccc(F)c(Cl)c1 (stereo not drawn) [Compound 175] | 0.85 µM

Same assay, conditions: HepDE19 assay, inhibition of formation of relaxed circular DNA (rcDNA), bDNA quantitation; read-out: DE-19bDNA EC50

SMILES | EC50
CC(c1cnc(S(C)(=O)=O)c2ccccc12)N(C)C(=O)Nc1ccc(F)c(Cl)c1 (single isomer, unassigned) [Compound 315, 3-(3-Chloro-4-fluorophenyl)-1-methyl-1-(1-(1-(methylsulfonyl)isoquinolin-4-yl)ethyl)urea] | 0.8 µM
CC(c1c[nH]c(=O)c2c(F)c(F)ccc12)N(CCS(N)(=O)=O)C(=O)Nc1ccc(F)cc1 (single isomer, unassigned) [Compound 394, 2-(1-(1-(7,8-Difluoro-1-oxo-1,2-dihydroisoquinolin-4-yl)ethyl)-3-(4-fluorophenyl)ureido)ethane-1-sulfonamide] | 10 µM
CC(c1c[nH]c(=O)c2ccccc12)N(Cc1cscn1)C(=O)Nc1ccc(F)c(Cl)c1 (single isomer, unassigned) [Compound 312, 3-(3-Chloro-4-fluorophenyl)-1-(1-(1-oxo-1,2-dihydroisoquinolin-4-yl)ethyl)-1-(thiazol-4-ylmethyl)urea] | 4.6 µM
CC(c1c[nH]c(=O)c2ccccc12)N(Cc1ccncn1)C(=O)Nc1ccc(F)c(Cl)c1 (single isomer, unassigned) [Compound 321, 3-(3-Chloro-4-fluorophenyl)-1-(1-(1-oxo-1,2-dihydroisoquinolin-4-yl)ethyl)-1-(pyrimidin-4-ylmethyl)urea] | 19 µM
CC(c1c[nH]c(=O)c2cc(F)c(F)cc12)N(CCCO)C(=O)Nc1ccc(F)c(Cl)c1 (single isomer, unassigned) [Compound 290, 3-(3-Chloro-4-fluorophenyl)-1-(1-(6,7-difluoro-1-oxo-1,2-dihydroisoquinolin-4-yl)ethyl)-1-(3-hydroxypropyl)urea] | 0.002 µM
CC(c1cn(C)c(=O)c2c(F)c(F)ccc12)N(C)C(=O)Nc1ccc(F)c(Cl)c1 (single isomer, unassigned) [Compound 333, 3-(3-Chloro-4-fluorophenyl)-1-(1-(7,8-difluoro-2-methyl-1-oxo-1,2-dihydroisoquinolin-4-yl)ethyl)-1-methylurea] | 0.013 µM
CC(C)CN(C(=O)Nc1ccc(F)cc1)C(C)c1c[nH]c(=O)c2cc(F)c(F)cc12 (single isomer, unassigned) [Compound 288, 1-(1-(6,7-Difluoro-1-oxo-1,2-dihydroisoquinolin-4-yl)ethyl)-3-(4-fluorophenyl)-1-isobutylurea] | 0.004 µM
CC(c1c[nH]c(=O)c2cc(F)ccc12)N(CCS(N)(=O)=O)C(=O)Nc1ccc(F)c(Cl)c1 (single isomer, unassigned) [Compound 384, 2-(3-(3-Chloro-4-fluorophenyl)-1-(1-(7-fluoro-1-oxo-1,2-dihydroisoquinolin-4-yl)ethyl)ureido) ethane-1-sulfonamide] | 0.01 µM
CC(c1c[nH]c(=O)c2cc(F)c(F)cc12)N(CCCO)C(=O)Nc1ccc(F)cc1 (single isomer, unassigned) [Compound 292, 1-(1-(6,7-Difluoro-1-oxo-1,2-dihydroisoquinolin-4-yl)ethyl)-3-(4-fluorophenyl)-1-(3-hydroxypropyl) urea] | 0.01 µM

Same assay, conditions: Hepatitis B virus, HepDE19, HepDE19 assay, inhibition of formation of rcDNA; read-out: DE-19bDNA EC50

SMILES | EC50
CC(=O)NCCN(C(=O)Nc1ccc(F)c(Cl)c1)C(C)c1c[nH]c(=O)c2ccccc12 (racemic) [Compound 100, N-(2-(3-(3-chloro-4-fluorophenyl)-1-(1-(1-oxo-1,2-dihydroisoquinolin-4-yl)ethyl)ureido)ethyl)acetamide] | 1 µM
CC(c1c[nH]c(=O)c2ccccc12)N(CC(N)=O)C(=O)Nc1ccc(F)c(Cl)c1 (racemic) [Compound 128, 2-(3-(3-Chloro-4-fluorophenyl)-1-(1-(1-oxo-1,2-dihydroisoquinolin-4-yl)ethyl)ureido) acetamide] | 1.5 µM
CC(c1c[nH]c(=O)c2nccnc12)N(C)C(=O)Nc1ccc(F)c(Cl)c1 (racemic) [Compound 148, 3-(3-chloro-4-fluorophenyl)-1-methyl-1-(1-(5-oxo-5,6-dihydropyrido[3,4-b]pyrazin-8-yl)ethyl)urea] | 15 µM
C[C@H](c1c[nH]c(=O)c2ccccc12)N(C)C(=O)Nc1cc(F)c(F)c(F)c1 [Compound 91, (R)-1-Methyl-1-(1-(1-oxo-1,2-dihydroisoquinolin-4-yl)ethyl)-3-(3,4,5-trifluorophenyl)urea] | 0.16 µM
CC(c1c[nH]c(=O)c2ccccc12)N(CC1CCOCC1)C(=O)Nc1ccc(F)c(Cl)c1 (racemic) [Compound 134, 3-(3-chloro-4-fluorophenyl)-1-(1-(1-oxo-1,2-dihydroisoquinolin-4-yl)ethyl)-1-((tetrahydro-2H-pyran-4-yl)methyl)urea] | 0.07 µM
CCCN(C(=O)Nc1ccc(F)c(C)c1)[C@H](C)c1c[nH]c(=O)c2ccccc12 [Compound 43, (R)-3-(4-Fluoro-3-methylphenyl)-1-(1-(1-oxo-1,2-dihydroisoquinolin-4-yl)ethyl)-1-propylurea] | 0.01 µM
CC(c1cn(CCCO)c(=O)c2ccccc12)N(C)C(=O)Nc1ccc(F)c(Cl)c1 (single isomer, unassigned) [Compound 206, 3-(3-Chloro-4-fluorophenyl)-1-(1-(2-(3-hydroxypropyl)-1-oxo-1,2-dihydroisoquinolin-4-yl)ethyl)-1-methylurea] | 0.85 µM

Same assay, conditions: Hepatitis B virus, HepDE19, HepDE19 assay, inhibition of formation of relaxed circular DNA (rcDNA), bDNA quantitation; read-out: DE-19bDNA EC50

SMILES | EC50
CC(c1c[nH]c(=O)c2c(F)c(F)ccc12)N(CCS(N)(=O)=O)C(=O)Nc1ccc(F)c(Cl)c1 (racemic) [Compound 393, 2-(3-(3-chloro-4-fluorophenyl)-1-(1-(7,8-difluoro-1-oxo-1,2-dihydroisoquinolin-4-yl)ethyl)ureido) ethane-1-sulfonamide] | 0.037 µM
CC(C)CN(C(=O)Nc1ccc(F)cc1)C(C)c1cnc(-n2cncn2)c2ccccc12 (racemic) [Compound 301, 1-(1-(1-(1H-1,2,4-Triazol-1-yl)isoquinolin-4-yl)ethyl)-3-(4-fluorophenyl)-1-isobutylurea] | 0.051 µM
CC(C)CN(C(=O)Nc1ccc(F)c(Cl)c1)C(C)c1c[nH]c(=O)c2cc(F)c(F)cc12 (single isomer, unassigned) [Compound 281, 3-(3-Chloro-4-fluorophenyl)-1-(1-(6,7-difluoro-1-oxo-1,2-dihydroisoquinolin-4-yl)ethyl)-1-isobutylurea] | 0.002 µM

Same assay, conditions: Hepatitis B virus, HepDE19, read-out: DE-19bDNA EC50 (μM), HepDE19 assay, inhibition of formation of rcDNA

SMILES | EC50
CCN(C(=O)Nc1ccc(F)c(Cl)c1)C(c1c[nH]c(=O)c2ccccc12)C(C)C (single isomer, unassigned) [Compound 54, 3-(3-Chloro-4-fluorophenyl)-1-ethyl-1-(2-methyl-1-(1-oxo-1,2-dihydroisoquinolin-4-yl)propyl)urea] | 20 µM

Same assay, conditions: Hepatitis B virus, HepDE19, read-out: DE-19bDNA EC50 (μM), HepDE19 assay, inhibition of formation of relaxed circular DNA (rcDNA), bDNA quantitation

SMILES | EC50
C[C@H](c1c[nH]c(=O)c2ccccc12)N(C)C(=O)Nc1ccc(Br)cc1 [Compound 294, (R)-3-(4-Bromophenyl)-1-methyl-1-(1-(1-oxo-1,2-dihydroisoquinolin-4-yl)ethyl)urea] | 0.87 µM

Same assay, conditions: read-out: DE-19bDNA EC50; HepDE19 assay, inhibition of formation of relaxed circular DNA (rcDNA), bDNA quantitation

SMILES | EC50
CC(c1c[nH]c(=O)c2c(F)c(F)ccc12)N(C)C(=O)Nc1cccc(Cl)c1 (single isomer, unassigned) [Compound 461, 3-(3-Chlorophenyl)-1-(1-(7,8-difluoro-1-oxo-1,2-dihydroisoquinolin-4-yl)ethyl)-1-methylurea] | 0.011 µM
CC(c1c[nH]c(=O)c2cc(F)c(F)cc12)N(C)C(=O)Nc1cccc(Cl)c1 (single isomer, unassigned) [Compound 413, 1-(1-(6,7-Difluoro-1-oxo-1,2-dihydroisoquinolin-4-yl)ethyl)-3-(3-chlorophenyl)-1-methylurea] | 0.018 µM
